Earlier results in paper PMC6574176 (Biomaterials, 2019).

Settings: rapidly bio-eliminated

In the case of CC1(C)C(/C=C/C=C/C=C/C=C2\N(CCCCS(=O)(=O)O)c3ccc4ccccc4c3C2(C)C)=[N+](CCCCS(=O)(=O)[O-])c2ccc3ccccc3c21 [free ICG, Indocyanine Green], the “t1/2 of free ICG” value is given as 2 to 4 min.
